Assay results taken from US20240010641A1, “N-Linked Glycosylation Inhibitors and Methods of Using Same” (YALE UNIVERSITY, priority 2020, published 2024).

Legend:
Assay type in all cases: cell-based
[1] = system: N-linked glycosylation (OST) in CHO-ER-LucT cells; test: CHO-ER-LucT luminescence assay for inhibition of N-linked glycosylation; details: for Emax: 24 h, [compound's fold change-1.0 (DMSO)]/[NGI-1 fold change-1.0 (DMSO)]*100, read-out: Max activity (% NGI-1); for AC50: CHO-ER-LucT cells, 24 hrs exposure, seven-point dose dilution, luminescence
Procedure: The CHO-ER-LucT cells have been previously described (Contessa et al., 2010, Clinical Cancer Research, 16(12):3205-14) and are used for testing analog IC50 for inhibition of N-linked glycosylation in 96 or 384 well plate format. In these cells induction of luminescence is dependent on inhibition of glycosylation (and OST inhibition), and is determined after 24 hrs of exposure to the analog following the addition of luciferin substrate. The luminescent signal is then quantified using standard plate readers that detect luminescence (e.g., Biotek synergy). Experiments are performed over a seven-point dose dilution to generate dose response data and to identify IC50 values and maximal activity compared to controls. Data is transformed to log 10 values to generate a sigmoidal shaped dose response curve and fitted using nonlinear regression (curve fit) in GraphPad Prism7.
All HL compounds were tested in CHO-ER-LucT cells. IC50 (AC50) was estimated in following method: Concentration X is converted to logarithm (log10) to generate sigmoidal shape curve and dose response curve is generated using Nonlinear regression (curve fit) in Prism. EC50 (AC50) is calculated using log(agonist) vs response-(three parameters)] which uses standard Hill slope (=1).
Max activity: [compound's fold change−1.0 (DMSO)]/[NGI−1 fold change−1.0 (DMSO)]*100(%) (Eq. 1)

[2] = system: protein glycosylation in HEK293 cells; test: Western blots of protein glycoforms after OST inhibitor treatment, HEK293 cells; details: 24 hrs, Western blot, FIG. 1
Procedure: FIG. 1 illustrates Western blots of protein glycoforms after OST inhibitor treatment in vitro. HEK293 cells were treated with each inhibitor for 24 hrs at indicated concentrations. Changes in glycosylation are shown by reduced molecular weight.
(§1) Inhibition of glycosylation is then confirmed by analysis of glycoprotein size using western blots. Increased gel mobility of proteins such as the EGFR or Halo3N indicate loss of protein glycosylation (FIGS. 1-2).

[3] = system: STT3A (HEK293 STT3B KO cells); test: Western blots of protein glycoforms, HEK293 cells with knockout of STT3B; details: 24 hrs, Western blot, FIG. 2, indicating enhanced specificity for STT3A
Procedure: FIG. 2 illustrates Western blots of protein glycoforms after OST inhibitor treatment in vitro using HEK293 cells with knockout (KO) of either STT3A or STT3B. Cells were treated with each inhibitor for 24 hrs at indicated concentrations. Changes in glycosylation are shown by reduced molecular weight.
as §1

[4] = system: N-linked glycosylation in D54; test: ER-LucT type AC50 determination in D54 cells (NGI-1 only); details: Homo sapiens

`CCc1cnc(NC(=O)c2cc(S(=O)(=O)N3CCOCC3)ccc2N(C)CC2CC2)s1` [Example 3, 2-((cyclopropylmethyl)(methyl)amino)-N-(5-ethylthiazol-2-yl)-5-(morpholinosulfonyl)benzamide] was tested, and the Emax [1] was 215%, the AC50 [1] was 59 nM and the “Changes in glycosylation (reduced molecular weight of protein glycoforms)” value [2] was “more potent effect”. For the same molecule, the “Effect on glycosylation in STT3B KO cells” value [3] was “more potent effect”.
With `CCc1cnc(NC(=O)c2cc(S(=O)(=O)N3CCOCC3)ccc2N(C)C2CCCC2)s1` [Example 4, 2-(cyclopentyl(methyl)amino)-N-(5-ethylthiazol-2-yl)-5-(morpholinosulfonyl)benzamide] the Emax [1] was 206%, the AC50 [1] was 87 nM and the “Changes in glycosylation (reduced molecular weight of protein glycoforms)” value [2] was “more potent effect”. The “Effect on glycosylation in STT3B KO cells” value [3] was “more potent effect”.
With `CCc1cnc(NC(=O)c2cc(S(=O)(=O)N3CCOCC3)cnc2N(C)CC2CC2)s1` [Example 26, 2-((cyclopropylmethyl)(methyl)amino)-N-(5-ethylthiazol-2-yl)-5-(morpholinosulfonyl)nicotinamide] the Emax [1] was 104% and the AC50 [1] was 851 nM.
For `CCc1cnc(NC(=O)c2cc(S(=O)(=O)N3CCOCC3)nnc2N(C)CC2CC2)s1` [Example 27, 3-((cyclopropylmethyl)(methyl)amino)-N-(5-ethylthiazol-2-yl)-6-(morpholinosulfonyl)pyridazine-4-carboxamide], the Emax [1] was 13.3% and the AC50 [1] was 115 nM.
In the case of `CCc1cnc(NC(=O)c2nc(S(=O)(=O)N3CCOCC3)ccc2N(C)CC2CC2)s1` [Example 28, 3-((cyclopropylmethyl)(methyl)amino)-N-(5-ethylthiazol-2-yl)-6-(morpholinosulfonyl)picolinamide], the Emax [1] is reported as 33.3% and the AC50 [1] is reported as 7920 nM.
Work on `Cc1nc(NC(=O)c2cc(S(=O)(=O)N(C)C)cc(F)c2N2CCCC2)sc1C` [Example 29, 5-(N,N-dimethylsulfamoyl)-N-(4,5-dimethylthiazol-2-yl)-3-fluoro-2-(pyrrolidin-1-yl)benzamide] yielded an Emax [1] of 62.6% and an AC50 [1] of 4990 nM.
With `CCc1cnc(NC(=O)c2cc(S(=O)(=O)N3CCOCC3)c(F)cc2N(C)CC2CC2)s1` [Example 30, 2-((cyclopropylmethyl)(methyl)amino)-N-(5-ethylthiazol-2-yl)-4-fluoro-5-(morpholinosulfonyl)benzamide] the Emax [1] was 96.4% and the AC50 [1] was 371 nM.
`Cc1nc(NC(=O)c2cc(S(=O)(=O)N3CCOCC3)c(F)cc2N(C)CC2CC2)sc1C` [Example 31, 2-((cyclopropylmethyl)(methyl)amino)-N-(4,5-dimethylthiazol-2-yl)-4-fluoro-5-(morpholinosulfonyl)benzamide] gave an Emax [1] of 61.2% and an AC50 [1] of 431 nM.
In the case of `Cc1nc(NC(=O)c2cc(S(=O)(=O)N(C)C)c(F)cc2N2CCCC2)sc1C` [Example 32, 5-(N,N-dimethylsulfamoyl)-N-(4,5-dimethylthiazol-2-yl)-4-fluoro-2-(pyrrolidin-1-yl)benzamide], the Emax [1] is reported as 52.6% and the AC50 [1] is reported as 3840 nM.
In the case of `Cc1ccc(NC(=O)c2cc(S(=O)(=O)N(C)C)ccc2N2CCC(F)(F)C2)cc1` [Example 33, 2-(3,3-difluoropyrrolidin-1-yl)-5-(N,N-dimethylsulfamoyl)-N-(p-tolyl)benzamide], the Emax [1] is reported as 67.5% and the AC50 [1] is reported as 5840 nM.
Molecule `Cc1nc(NC(=O)c2cc(S(=O)(=O)N(C)C)ccc2N2CCC(F)(F)C2)sc1C` [Example 34, 2-(3,3-difluoropyrrolidin-1-yl)-5-(N,N-dimethylsulfamoyl)-N-(4,5-dimethylthiazol-2-yl)benzamide] has an Emax [1] of 76.9% and an AC50 [1] of 738 nM.
With `Cc1csc(NC(=O)c2cc(S(=O)(=O)N(C)C)ccc2N2CCC(F)(F)C2)n1` [Example 35, 2-(3,3-difluoropyrrolidin-1-yl)-5-(N,N-dimethylsulfamoyl)-N-(4-methylthiazol-2-yl)benzamide] the Emax [1] was 70% and the AC50 [1] was 3000 nM.
Work on `CCc1cnc(NC(=O)c2cc(S(=O)(=O)N3CCOCC3)ccc2N2CCC(F)(F)C2)s1` [Example 36, 2-(3,3-difluoropyrrolidin-1-yl)-N-(5-ethylthiazol-2-yl)-5-(morpholinosulfonyl)benzamide] yielded an Emax [1] of 137% and an AC50 [1] of 591 nM.
In the case of `CCc1cnc(NC(=O)c2cc(S(=O)(=O)N(C)C)ccc2N2CCC(F)(F)C2)s1` [Example 37, 2-(3,3-difluoropyrrolidin-1-yl)-5-(N,N-dimethylsulfamoyl)-N-(5-ethylthiazol-2-yl)benzamide], the Emax [1] is reported as 126% and the AC50 [1] is reported as 565 nM.
`Cc1nc(NC(=O)c2cc(S(=O)(=O)N3CCOCC3)ccc2N2CCC(F)(F)C2)sc1C` [Example 38, 2-(3,3-difluoropyrrolidin-1-yl)-N-(4,5-dimethylthiazol-2-yl)-5-(morpholinosulfonyl)benzamide] showed an Emax [1] of 42.8% and an AC50 [1] of 748 nM.
With `Cc1cnc(NC(=O)c2cc(S(=O)(=O)N(C)C)ccc2N2CCCC2)s1` [NGI-1, 5-(N,N-Dimethylsulfamoyl)-N-(5-methylthiazol-2-yl)-2-(pyrrolidin-1-yl)benzamide, reference compound] the Emax [1] was 100%, the AC50 [1] was 1110 nM and the AC50 [4] was 712 nM.
